In patent US20100130599A1 (priority 2008, published 2010):
Like-named read-outs stand apart in the source and are kept apart here.

What was measured:
CYP2C9*8 [1] = target: T1, CYP2C9*8 (Homo sapiens, UniProt P11712, R150H); conditions: cited from earlier work
CYP2C9*8 [2] = target: T1, CYP2C9*8; design: host or cells: human subjects carrying the CYP2C9*8 allele (in vivo phenotyping); conditions: CYP2C9*8 allele, cited from earlier work
[3] = From the text: A total of 226 African American patients having demographic and clinical parameters as depicted in Table 1 were studied.
Patients were enrolled from the pharmacist-managed anticoagulation clinics at the University of Illinois Medical Center at Chicago and at the University of Florida in Gainesville. […] Aquilante, C. […] Pharmacogenomics 8, 1535-44 (2007). Patients with a history of liver dysfunction or serum transaminase levels greater than 3 times the upper limit of normal were excluded.
After obtaining written informed consent and authorization for medical record review, a buccal cell sample was collected for genetic analysis, as previously described. Andrisin, T. E., Humma, L. M. & Johnson, J. A. Collection of genomic DNA by the noninvasive mouthwash method for use in pharmacogenetic studies. Pharmacotherapy 22, 954-60 (2002). Demographic, clinical, and social history were assessed through patient interview and review of the medical record. This study was approved by the Institutional Review Board at each institution.
Genomic DNA was isolated from buccal cells using a commercially available kit (PureGene,® Qiagen, Valencia, Calif.) according to kit manufacturer instructions. The CYP2C9 R144C (*2), […] (*3) and D360E (*5) alleles and VKORC1 −1639G>A genotype were determined as previously described. Aquilante, C. […] Clin Pharmacol Ther 79, 291-302 (2006); Hruska, M. W., Frye, R. F. & Langaee, T. Y. Pyrosequencing method for genotyping cytochrome P450 CYP2C8 and CYP2C9 enzymes. Clin Chem 50, 2392-5 (2004). The VKORC1 −4451A>C, 497G>T, and 3730A>G genotypes, and APOE 112C>T and 158C>T genotypes were determined by PCR and pyrosequencing. PCR and sequencing primers used were per Table 6.
Prior to determination of additional genotypes, genomic DNA was amplified by the whole genome amplification (WGA) technique, using the REPLI-g midi kit (Qiagen). Dean, F. B. et al. Comprehensive human genome amplification using multiple displacement amplification. Proc Natl Acad Sci USA 99, 5261-6 (2002) The fidelity of amplification was verified by comparing genotypes for CYP2C9*2, *3, *5 and VKORC1 −1639G>A determined before and after WGA. […] Reed, M. R. & Coty, W. A. in Microarrays: Preparation, Detection Methods, Data Analysis, and Applications (eds. Dill, K., Liu, R. & Grodzinski, P.) 247-60 (Springer-Verlag/Kluwer, 2009). The CYP2C9*8 genotype was determined by bi-directional DNA sequencing at Agencourt Biosciences after uniplex PCR amplification performed by Osmetech Molecular Diagnostics.
Data are expressed as numbers (percentages), mean±SD, or median (inter-quartile range). Height and weight were used to calculate body surface area (BSA). […] Hardy Weinberg Equilibrium (HWE) assumption was tested by χ^2 analysis. […] Dickmann, L. J. et al. Identification and functional characterization of a new CYP2C9 variant (CYP2C9*5) expressed among African Americans. Mol Pharmacol 60, 382-7 (2001); Allabi, A. C., Gala, J. L. & Horsmans, Y. CYP2C9, CYP2C19, ABCB1 (MDR1) genetic polymorphisms and phenytoin metabolism in a Black Beninese population. Pharmacogenet Genomics 15, 779-86 (2005); Blaisdell, J. et al. Discovery of new potentially defective alleles of human CYP2C9. Pharmacogenetics 14, 527-37 (2004) Carriers of a variant CYP2C9*8 allele were initially analyzed separately because of uncertainty regarding the functional effects of this allele.

## CCCCc1nc(Cl)c(CO)n1Cc1ccc(-c2ccccc2-c2nnn[nH]2)cc1 [Losartran]
CYP2C9*8 [1]
  effect of *8 on in vivo metabolism: little effect

## O=C1NC(=O)C(c2ccccc2)(c2ccccc2)N1 [phenytoin]
CYP2C9*8 [2]; clinical study
  urinary excretion of phenytoin metabolite: reduced urinary excretion
CYP2C9*8 [2]; in vivo
  effect of *8 on in vivo metabolism: decreases in vivo metabolism

## CC(=O)CC(c1ccccc1)c1c(O)c2ccccc2oc1=O (stereo not drawn) [warfarin]
[3]; APOE ε2/ε2, n=4
  Median (IQR) dose: 35.5 (34.3-38.9) mg/week
[3]; APOE ε2/ε3, n=36
  Median (IQR) dose: 40.0 (30.0-49.7) mg/week
[3]; APOE ε2/ε4, n=6
  Median (IQR) dose: 61.3 (38.4-70.0) mg/week
[3]; APOE ε3/ε3, n=102
  Median (IQR) dose: 40.0 (32.1-52.5) mg/week
[3]; APOE ε3/ε4, n=60
  Median (IQR) dose: 43.8 (32.4-56.3) mg/week
[3]; APOE ε4/ε4, n=9
  Median (IQR) dose: 45.0 (40.0-52.5) mg/week
[3]; APOE ε4 carriers
  warfarin dose, median (IQR): 45.0 (33.1-56.3) mg/week
[3]; APOE ε4 homozygotes
  warfarin dose, median (IQR): 45.0 (40.0-52.5) mg/week
[3]; CYP2C9 *1/*1, n=171
  Median (IQR) dose: 42.5 (35.0-56.3) mg/week
[3]; CYP2C9 *1/*8 or *8/*8, n=24
  Median (IQR) dose: 34.4 (29.5-47.3) mg/week
[3]; CYP2C9 *2, *3, *5, *6, or *11 allele, n=28
  Median (IQR) dose: 33.1 (28.0-40.0) mg/week
[3]; CYP4F2 V433M M/M, n=3
  Median (IQR) dose: 37.5 (28.8-56.3) mg/week
[3]; CYP4F2 V433M V/M, n=26
  Median (IQR) dose: 40.0 (35.3-51.9) mg/week
[3]; CYP4F2 V433M V/V, n=194
  Median (IQR) dose: 41.6 (32.5-55.0) mg/week
[3]; VKORC1 497T > G GG, n=1
  Median (IQR) dose: 36.0 — mg/week
[3]; VKORC1 497T > G TG, n=16
  Median (IQR) dose: 35.0 (27.5-36.3) mg/week
[3]; VKORC1 497T > G TT, n=208
  Median (IQR) dose: 42.0 (32.5-56.1) mg/week
[3]; VKORC1 −1639G > A GA, n=33
  Median (IQR) dose: 35.0 (27.5-42.5) mg/week
[3]; VKORC1 −4451C > A AA, n=3
  Median (IQR) dose: 28.0 (26.5-30.3) mg/week
[3]; VKORC1 −4451C > A CA, n=22
  Median (IQR) dose: 42.5 (31.0-55.6) mg/week
[3]; VKORC1 −4451C > A CC, n=200
  Median (IQR) dose: 40.0 (32.5-55.0) mg/week
[3]; VKORC1.3730A > G AA, n=45
  Median (IQR) dose: 42.0 (32.5-55.0) mg/week
[3]; VKORC1.3730A > G GA, n=121
  Median (IQR) dose: 42.0 (34.0-56.3) mg/week
[3]; VKORC1.3730A > G GG, n=60
  Median (IQR) dose: 37.5 (30.0-47.5) mg/week
[3]; all patients (n = 226) on stable warfarin dose, mean ± SD
  Average INR: 2.5 ± 0.3
[3]; all patients (n = 226), median (IQR)
  Therapeutic warfarin dose: 40.0 (32.5-55.0) mg/week
[3]; individuals with a CYP2C9*5, *6, *8, or *11 allele, n=40
  warfarin dose, median (IQR): 35.0 mg/wk
[3]; non-c4 homozygotes
  warfarin dose, median (IQR): 40.0 (32.0-55.0) mg/week
[3]; non-ε4 carriers
  warfarin dose, median (IQR): 40.0 (32.0-52.5) mg/week
[3]; study population, median (range)
  median daily warfarin dose: 5.7 mg
